Test results taken from paper PMC12339982 (Nature Communications, 2025).
Where a chain is given by its changes, count along the chain named.

Tests used:
Conditions in all cases: mean ± s.e.m., n=3
TauT F300A mutant = molecular target: T1, TauT F300A mutant (Homo sapiens, UniProt P31641, F300A); experiment: MST binding, TauT F300A
T1 sequence (P31641 1-620 F300A): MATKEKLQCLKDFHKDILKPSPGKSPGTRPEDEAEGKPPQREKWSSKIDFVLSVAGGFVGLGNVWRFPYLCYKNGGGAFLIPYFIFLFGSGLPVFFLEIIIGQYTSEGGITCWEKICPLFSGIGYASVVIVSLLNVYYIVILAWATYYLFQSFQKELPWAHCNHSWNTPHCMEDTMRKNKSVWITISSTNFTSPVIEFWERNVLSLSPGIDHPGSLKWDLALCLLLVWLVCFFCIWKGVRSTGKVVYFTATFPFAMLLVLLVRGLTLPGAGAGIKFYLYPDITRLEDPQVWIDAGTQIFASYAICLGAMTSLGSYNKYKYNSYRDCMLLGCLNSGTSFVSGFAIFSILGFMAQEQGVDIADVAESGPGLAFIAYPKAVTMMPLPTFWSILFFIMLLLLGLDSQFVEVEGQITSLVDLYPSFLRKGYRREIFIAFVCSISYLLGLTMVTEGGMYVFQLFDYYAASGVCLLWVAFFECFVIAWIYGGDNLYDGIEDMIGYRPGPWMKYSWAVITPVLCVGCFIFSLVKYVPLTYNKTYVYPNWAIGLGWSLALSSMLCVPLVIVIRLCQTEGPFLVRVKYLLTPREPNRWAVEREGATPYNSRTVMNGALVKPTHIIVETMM

TauT E406A mutant = molecular target: T2, TauT E406A mutant (Homo sapiens, UniProt P31641, E406A); experiment: MST binding, TauT E406A
T2 sequence (P31641 1-620 E406A): T1 sequence (P31641 1-620 F300A) with A300F, E406A

TauT Y138A mutant = molecular target: T3, TauT Y138A mutant (Homo sapiens, UniProt P31641, Y138A); experiment: MST binding, TauT Y138A
T3 sequence (P31641 1-620 Y138A): T1 sequence (P31641 1-620 F300A) with Y138A, A300F

TauT G62A mutant = molecular target: T4, TauT G62A mutant (Homo sapiens, UniProt P31641, G62A); experiment: MST binding, TauT G62A
T4 sequence (P31641 1-620 G62A): T1 sequence (P31641 1-620 F300A) with G62A, A300F

| Kd (MST) (TauT F300A mutant) | Kd (MST) (TauT Y138A mutant) | Kd (MST) (TauT G62A mutant) | Structure (SMILES) | Kd (MST) (TauT E406A mutant) |
| --- | --- | --- | --- | --- |
| drastic loss of GAA binding affinity | drastic loss of GAA binding affinity | drastic loss of GAA binding affinity | [H]/N=C(/N)NCC(=O)O [GAA, guanidinoacetate] | only marginally weakened the binding affinity |
| complete loss of the binding | complete loss of the binding | complete loss of the binding | NCCCC(=O)O [GABA, γ-aminobutyric acid] | reduces the binding affinity of GABA slightly |

| Structure (SMILES) | Kd (MST) (TauT F300A mutant) | Kd (MST) (TauT Y138A mutant) | Kd (MST) (TauT G62A mutant) | Kd (MST) (TauT E406A mutant) |
| --- | --- | --- | --- | --- |
| NCCS(=O)(=O)O [Taurine, taurine] | reduced the taurine binding to varying extents | undetectable binding | – | reduced the taurine binding to varying extents |
